Test results reported in PMC6631999, “A Universal Photochemical Method to Prepare Carbohydrate Sensors Based on Perfluorophenylazide Modified Polydopamine for Study of Carbohydrate-Lectin Interactions by QCM Biosensor” (Polymers, 2019).

Assays:
peanut agglutinin (PNA) = molecular target: T1, peanut agglutinin (PNA) (Arachis hypogaea, UniProt P02872); experiment: QCM biosensor frequency shift (Attana Cell-A200); assay type: binding; settings: sugar photochemically immobilised on PFPA-polydopamine sensor; lectin 100 ug/mL; 10 mM PBS pH 7.4; BSA-blocked
T1 construct: native commercial plant lectin (Vector Laboratories), in solution
T1 sequence (P02872 24-273): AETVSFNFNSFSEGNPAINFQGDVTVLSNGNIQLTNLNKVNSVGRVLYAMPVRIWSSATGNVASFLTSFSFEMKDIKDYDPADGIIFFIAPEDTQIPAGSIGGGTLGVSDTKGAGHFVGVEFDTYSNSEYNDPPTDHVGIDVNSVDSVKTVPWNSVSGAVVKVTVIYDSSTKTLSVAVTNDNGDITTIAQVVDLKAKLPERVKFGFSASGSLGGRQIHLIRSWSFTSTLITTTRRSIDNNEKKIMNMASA

soybean agglutinin (SBA) = molecular target: T2, soybean agglutinin (SBA) (Glycine max, UniProt P05046); experiment: QCM biosensor frequency shift (Attana Cell-A200); assay type: binding
T2 construct: gene LE1; native commercial plant lectin (Vector Laboratories), in solution
T2 sequence (P05046 33-285): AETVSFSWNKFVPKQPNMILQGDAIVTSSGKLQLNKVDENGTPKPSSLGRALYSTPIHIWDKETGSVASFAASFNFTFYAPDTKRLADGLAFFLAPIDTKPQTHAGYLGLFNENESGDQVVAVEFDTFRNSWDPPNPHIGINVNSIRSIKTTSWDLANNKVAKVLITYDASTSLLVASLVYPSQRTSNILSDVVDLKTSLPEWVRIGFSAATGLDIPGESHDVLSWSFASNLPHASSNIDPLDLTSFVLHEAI

OC[C@H]1OC(O)[C@H](O)[C@@H](O)[C@H]1O (some centres unmarked) [galactose]
QCM biosensor frequency shift (Attana Cell-A200) (peanut agglutinin (PNA)): both SBA and PNA can bind to galactose, but the binding strengths are different
QCM biosensor frequency shift (Attana Cell-A200) (soybean agglutinin (SBA)): SBA has the highest binding with galactose, followed by PNA
